In ChEMBL document CHEMBL1201862, “PubChem BioAssay data set” (2004):
Calls of active or inactive are those of the source.

What was measured:
[1] = biological target: Ion channel NompC (Danio rerio, UniProt Q7T1G6); assay: Dose response cell-based high-throughput screening assay for agonists of the transient receptor potential channel N1 (TRPN1). [Related pubchem assays (depositor defined):AID1424, AID1448]; format: functional
[2] = biological target: T1, Mucolipin-3 (Homo sapiens, UniProt Q8TDD5); assay: Fluorescence counterscreen assay for […] agonists: dose response cell-based high-throughput screening assay to identify agonists of the transient receptor potential channel ML3 (TRPML3). [Related pubchem assays: 1424, 1448 ]; format: functional
T1 sequence (Q8TDD5 whole entry): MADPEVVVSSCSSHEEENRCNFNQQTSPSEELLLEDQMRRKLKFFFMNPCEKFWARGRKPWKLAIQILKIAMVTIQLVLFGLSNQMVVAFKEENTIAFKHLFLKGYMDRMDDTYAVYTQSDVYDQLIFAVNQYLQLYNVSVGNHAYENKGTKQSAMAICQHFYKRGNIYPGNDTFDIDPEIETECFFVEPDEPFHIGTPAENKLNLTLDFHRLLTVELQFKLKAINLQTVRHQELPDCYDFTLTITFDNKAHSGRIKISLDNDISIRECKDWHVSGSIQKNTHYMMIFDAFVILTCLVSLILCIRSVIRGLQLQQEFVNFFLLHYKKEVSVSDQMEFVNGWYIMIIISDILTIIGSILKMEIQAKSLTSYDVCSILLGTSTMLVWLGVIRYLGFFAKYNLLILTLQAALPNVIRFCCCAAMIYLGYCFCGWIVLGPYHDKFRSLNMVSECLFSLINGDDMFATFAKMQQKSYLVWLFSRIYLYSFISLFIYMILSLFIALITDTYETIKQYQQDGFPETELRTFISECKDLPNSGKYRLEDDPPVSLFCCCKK

[3] = biological target: T2, Neuropeptides B/W receptor type 1 (Homo sapiens, UniProt P48145); assay: Fluorescence-based dose response cell-based high throughput screening assay to identify antagonists of the G-protein coupled receptor 7 (GPR7). [Related pubchem assays: 1952 (Screening assay (GPR7 antagonists).), 1880 (Summary AID.)]; format: functional
T2 sequence (P48145 whole entry): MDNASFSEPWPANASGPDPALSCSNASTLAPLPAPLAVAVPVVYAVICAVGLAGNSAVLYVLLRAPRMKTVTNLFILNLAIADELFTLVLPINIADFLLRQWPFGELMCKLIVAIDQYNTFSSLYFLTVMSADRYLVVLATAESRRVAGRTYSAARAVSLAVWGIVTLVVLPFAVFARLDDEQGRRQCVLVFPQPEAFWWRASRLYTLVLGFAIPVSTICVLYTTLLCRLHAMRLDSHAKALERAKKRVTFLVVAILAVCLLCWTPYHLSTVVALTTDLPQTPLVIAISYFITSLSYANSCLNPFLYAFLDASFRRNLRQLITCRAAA

[4] = biological target: Melanin-concentrating hormone receptor 1 (Homo sapiens, UniProt Q99705); assay: Fluorescence-based counterscreen for antagonists of the G-protein coupled receptor 7 (GPR7): cell-based high throughput dose response assay to identify antagonists of the melanin-concentrating hormone receptor 1 (MCHR1).; format: functional
[5] = biological target: Coagulation factor XII (Homo sapiens, UniProt P00748); format: functional;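 also: activated factor XIIa alpha cleaving a fluorogenic AMC peptide substrate; inhibitor potency from loss of enzyme activity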
[6] = biological target: T3, Mannose-6-phosphate isomerase (Homo sapiens, UniProt P34949); assay: MPI inhibition at elevated mannose 6-phosphate – biochemical, fluorescence intensity, high mannose 6-phosphate, primary screen (AID 1220)
T3 sequence (P34949 whole entry): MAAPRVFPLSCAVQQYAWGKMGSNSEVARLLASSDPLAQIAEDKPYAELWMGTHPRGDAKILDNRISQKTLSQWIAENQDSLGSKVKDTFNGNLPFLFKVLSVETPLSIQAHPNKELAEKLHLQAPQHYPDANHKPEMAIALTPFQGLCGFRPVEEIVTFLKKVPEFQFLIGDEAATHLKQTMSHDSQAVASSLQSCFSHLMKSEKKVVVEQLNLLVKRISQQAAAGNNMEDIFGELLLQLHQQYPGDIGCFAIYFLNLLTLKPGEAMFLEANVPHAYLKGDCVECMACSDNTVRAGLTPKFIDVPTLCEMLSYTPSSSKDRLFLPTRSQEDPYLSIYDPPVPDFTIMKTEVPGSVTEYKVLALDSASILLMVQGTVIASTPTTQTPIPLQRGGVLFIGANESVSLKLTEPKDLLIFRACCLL

[7] = biological target: Glucose-6-phosphate 1-dehydrogenase (Homo sapiens, UniProt P11413); assay: inhibition of Homo sapiens G6PD, dose series – biochemical, fluorescence, selectivity assay for P. falciparum G6PD inhibitor project, dose response (AID 504792); format: functional
[8] = biological target: T4, Hexokinase-1 (Homo sapiens, UniProt P19367); assay: HK1 enzyme activation by HKDC1 hits – biochemical, selectivity assay for HKDC1 activator project, dose response (AID 504762); format: functional
T4 sequence (P19367 whole entry): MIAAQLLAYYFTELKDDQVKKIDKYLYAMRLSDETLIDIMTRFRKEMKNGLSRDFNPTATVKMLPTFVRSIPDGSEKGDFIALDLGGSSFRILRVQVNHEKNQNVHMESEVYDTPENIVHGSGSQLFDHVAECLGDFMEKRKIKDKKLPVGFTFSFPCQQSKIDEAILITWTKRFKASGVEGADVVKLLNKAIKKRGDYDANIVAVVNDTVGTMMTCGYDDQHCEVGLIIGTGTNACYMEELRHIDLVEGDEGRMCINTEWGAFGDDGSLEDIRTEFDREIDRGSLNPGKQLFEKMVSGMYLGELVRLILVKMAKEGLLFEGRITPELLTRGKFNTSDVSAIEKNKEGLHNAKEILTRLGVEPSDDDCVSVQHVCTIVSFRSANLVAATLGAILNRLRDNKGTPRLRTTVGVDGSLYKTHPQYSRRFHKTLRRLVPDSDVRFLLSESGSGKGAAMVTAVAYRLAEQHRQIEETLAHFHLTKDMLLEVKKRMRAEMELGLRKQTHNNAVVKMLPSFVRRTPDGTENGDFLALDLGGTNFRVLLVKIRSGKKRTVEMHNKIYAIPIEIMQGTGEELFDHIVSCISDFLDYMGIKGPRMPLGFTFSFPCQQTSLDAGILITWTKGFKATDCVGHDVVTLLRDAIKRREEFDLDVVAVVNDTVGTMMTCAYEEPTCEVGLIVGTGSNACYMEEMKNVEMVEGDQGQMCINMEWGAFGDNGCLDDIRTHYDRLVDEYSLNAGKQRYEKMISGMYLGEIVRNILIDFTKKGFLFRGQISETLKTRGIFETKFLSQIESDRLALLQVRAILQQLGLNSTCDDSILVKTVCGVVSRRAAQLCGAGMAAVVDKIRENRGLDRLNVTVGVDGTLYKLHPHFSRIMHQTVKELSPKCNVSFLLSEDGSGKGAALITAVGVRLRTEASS

[9] = biological target: T5, Hexokinase HKDC1 (Homo sapiens, UniProt Q2TB90); assay: activation of HKDC1 glucose phosphorylation – biochemical, W721R variant, dose response (AID 504730); format: functional
T5 sequence (Q2TB90 whole entry): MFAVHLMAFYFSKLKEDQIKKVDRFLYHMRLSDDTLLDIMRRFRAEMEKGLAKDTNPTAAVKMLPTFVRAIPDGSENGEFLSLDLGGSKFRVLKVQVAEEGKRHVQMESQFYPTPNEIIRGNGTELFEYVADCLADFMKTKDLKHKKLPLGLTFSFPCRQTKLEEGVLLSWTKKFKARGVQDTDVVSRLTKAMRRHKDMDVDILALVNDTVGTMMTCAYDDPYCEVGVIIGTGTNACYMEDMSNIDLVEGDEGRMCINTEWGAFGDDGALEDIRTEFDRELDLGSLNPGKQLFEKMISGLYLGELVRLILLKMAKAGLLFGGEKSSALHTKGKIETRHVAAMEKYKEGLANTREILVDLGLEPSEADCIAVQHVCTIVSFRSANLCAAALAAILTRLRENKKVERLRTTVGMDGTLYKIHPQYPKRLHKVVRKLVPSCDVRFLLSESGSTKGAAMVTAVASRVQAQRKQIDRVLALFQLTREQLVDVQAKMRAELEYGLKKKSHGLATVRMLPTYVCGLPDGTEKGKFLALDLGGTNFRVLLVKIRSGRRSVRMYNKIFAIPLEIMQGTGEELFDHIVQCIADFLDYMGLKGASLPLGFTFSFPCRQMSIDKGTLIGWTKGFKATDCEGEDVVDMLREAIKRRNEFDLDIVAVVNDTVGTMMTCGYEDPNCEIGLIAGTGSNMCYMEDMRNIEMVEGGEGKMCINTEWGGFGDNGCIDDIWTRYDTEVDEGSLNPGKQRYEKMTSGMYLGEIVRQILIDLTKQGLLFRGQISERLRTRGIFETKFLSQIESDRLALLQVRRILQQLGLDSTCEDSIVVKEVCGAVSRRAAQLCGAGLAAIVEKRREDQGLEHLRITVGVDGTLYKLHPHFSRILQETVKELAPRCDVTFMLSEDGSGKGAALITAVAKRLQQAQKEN

[10] = biological target: T6, Cannabinoid receptor 2 (Homo sapiens, UniProt P34972); assay: SAR analysis of agonists of the Cannabinoid Receptor 2 using an Image-Based Assay - Set 3. [Related pubchem assays (depositor defined):AID2013, AID2026]; format: functional
[11] = biological target: T7, Cannabinoid receptor 1 (Homo sapiens, UniProt P21554); assay: SAR analysis of antagonists of the Cannabinoid Receptor 1 using an Image-Based Assay - Set 4. [Related pubchem assays (depositor defined):AID2013, AID2026]; format: functional
[12] = biological target: G-protein coupled receptor 55 (Homo sapiens, UniProt Q9Y2T6); assay: SAR Analysis of Selective Antagonists of GPR55 using an Image-Based Assay - Set 4. [Related pubchem assays (depositor defined):AID2013, AID2026]; format: functional;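 also: antagonism of response to 5 µM lysophosphatidylinositol agonist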
[13] = biological target: T8, G-protein coupled receptor 35 (Homo sapiens, UniProt Q9HC97); assay: SAR analysis of Agonists of the GPR35 Receptor using an Image-Based Assay - Set 4. [Related pubchem assays (depositor defined):AID2013, AID2026]; format: functional
[14] = biological target: T7, Cannabinoid receptor 1; assay: SAR analysis of agonists of the Cannabinoid Receptor 1 using an Image-Based Assay - Set 4. [Related pubchem assays (depositor defined):AID2013, AID2026]; format: functional
[15] = biological target: T6, Cannabinoid receptor 2; assay: SAR analysis of antagonists of the Cannabinoid Receptor 2 using an Image-Based Assay - Set 3. [Related pubchem assays (depositor defined):AID2013, AID2026]; format: functional
[16] = biological target: T8, G-protein coupled receptor 35; assay: SAR analysis of Antagonists of the GPR35 Receptor using an Image-Based Assay - Set 6. [Related pubchem assays (depositor defined):AID2013, AID2026]; format: functional

T6 sequence (P34972 whole entry): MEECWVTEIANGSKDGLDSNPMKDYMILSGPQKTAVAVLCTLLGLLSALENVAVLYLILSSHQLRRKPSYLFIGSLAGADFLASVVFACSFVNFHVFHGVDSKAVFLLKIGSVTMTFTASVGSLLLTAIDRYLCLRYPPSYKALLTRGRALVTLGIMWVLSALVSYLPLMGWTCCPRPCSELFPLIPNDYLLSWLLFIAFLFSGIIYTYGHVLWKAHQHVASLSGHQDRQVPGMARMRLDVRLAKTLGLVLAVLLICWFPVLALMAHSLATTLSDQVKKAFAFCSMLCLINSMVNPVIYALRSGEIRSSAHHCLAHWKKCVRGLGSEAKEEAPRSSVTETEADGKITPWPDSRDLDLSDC
T8 sequence (Q9HC97 whole entry): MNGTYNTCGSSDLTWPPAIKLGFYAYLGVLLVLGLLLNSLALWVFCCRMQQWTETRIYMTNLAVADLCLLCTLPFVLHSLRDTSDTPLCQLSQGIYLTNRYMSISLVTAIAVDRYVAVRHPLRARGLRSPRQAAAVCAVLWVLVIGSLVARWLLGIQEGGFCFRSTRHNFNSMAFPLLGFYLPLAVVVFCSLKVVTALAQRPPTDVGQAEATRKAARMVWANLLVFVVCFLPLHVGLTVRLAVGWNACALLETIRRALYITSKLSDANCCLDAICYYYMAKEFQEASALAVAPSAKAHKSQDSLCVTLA
T7 sequence (P21554 whole entry): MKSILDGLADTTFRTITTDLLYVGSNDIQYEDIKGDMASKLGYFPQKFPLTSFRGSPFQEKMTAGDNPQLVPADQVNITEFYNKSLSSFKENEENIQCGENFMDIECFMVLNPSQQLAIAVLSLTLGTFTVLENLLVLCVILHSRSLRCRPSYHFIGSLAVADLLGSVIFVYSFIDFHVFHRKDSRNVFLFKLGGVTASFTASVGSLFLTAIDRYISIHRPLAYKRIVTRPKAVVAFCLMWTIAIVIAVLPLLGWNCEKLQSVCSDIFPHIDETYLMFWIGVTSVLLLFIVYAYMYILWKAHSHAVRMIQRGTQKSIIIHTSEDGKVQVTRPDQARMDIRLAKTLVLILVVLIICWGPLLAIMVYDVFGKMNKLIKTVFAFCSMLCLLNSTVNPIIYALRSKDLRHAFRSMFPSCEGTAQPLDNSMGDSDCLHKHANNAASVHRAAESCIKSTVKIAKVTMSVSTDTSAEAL
Sequence of G-protein coupled receptor 55 (Q9Y2T6 whole entry): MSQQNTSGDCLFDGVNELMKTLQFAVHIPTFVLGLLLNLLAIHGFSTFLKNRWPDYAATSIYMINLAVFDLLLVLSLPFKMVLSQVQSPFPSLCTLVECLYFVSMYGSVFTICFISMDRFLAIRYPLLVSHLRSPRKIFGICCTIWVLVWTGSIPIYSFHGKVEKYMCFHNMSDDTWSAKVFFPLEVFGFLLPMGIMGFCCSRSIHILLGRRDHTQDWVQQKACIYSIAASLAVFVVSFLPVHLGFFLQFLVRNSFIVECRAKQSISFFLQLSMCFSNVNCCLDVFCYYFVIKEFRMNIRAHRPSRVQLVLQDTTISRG
Sequence of Coagulation factor XII (P00748 20-372 limits assumed): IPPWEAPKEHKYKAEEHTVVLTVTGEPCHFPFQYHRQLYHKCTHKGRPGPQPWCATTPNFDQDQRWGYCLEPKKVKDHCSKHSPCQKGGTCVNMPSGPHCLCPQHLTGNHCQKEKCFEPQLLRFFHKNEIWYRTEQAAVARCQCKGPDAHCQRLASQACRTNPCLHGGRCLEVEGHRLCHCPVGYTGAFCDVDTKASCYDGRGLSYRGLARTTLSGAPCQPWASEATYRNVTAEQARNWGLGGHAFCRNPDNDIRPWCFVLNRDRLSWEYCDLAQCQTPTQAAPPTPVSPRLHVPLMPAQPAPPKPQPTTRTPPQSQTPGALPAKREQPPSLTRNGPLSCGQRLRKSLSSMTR
Sequence of Coagulation factor XII (P00748 373-615 limits assumed): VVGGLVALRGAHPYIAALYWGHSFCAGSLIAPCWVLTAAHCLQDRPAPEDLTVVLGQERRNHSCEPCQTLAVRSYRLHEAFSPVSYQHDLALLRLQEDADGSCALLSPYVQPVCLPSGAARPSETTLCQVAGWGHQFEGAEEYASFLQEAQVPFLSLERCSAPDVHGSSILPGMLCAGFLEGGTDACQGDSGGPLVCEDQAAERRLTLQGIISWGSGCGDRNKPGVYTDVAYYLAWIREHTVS
Sequence of Melanin-concentrating hormone receptor 1 (Q99705 whole entry): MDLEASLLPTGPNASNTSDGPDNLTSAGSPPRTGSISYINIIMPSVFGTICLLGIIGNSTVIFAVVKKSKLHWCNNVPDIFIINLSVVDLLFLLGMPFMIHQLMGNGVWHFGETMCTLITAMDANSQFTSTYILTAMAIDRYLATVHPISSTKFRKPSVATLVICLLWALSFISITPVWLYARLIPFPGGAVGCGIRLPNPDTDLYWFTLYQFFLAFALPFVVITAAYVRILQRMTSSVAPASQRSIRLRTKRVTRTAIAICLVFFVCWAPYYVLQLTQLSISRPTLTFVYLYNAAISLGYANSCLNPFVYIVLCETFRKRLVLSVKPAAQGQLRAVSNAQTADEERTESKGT
Sequence of Ion channel NompC (Q7T1G6 whole entry): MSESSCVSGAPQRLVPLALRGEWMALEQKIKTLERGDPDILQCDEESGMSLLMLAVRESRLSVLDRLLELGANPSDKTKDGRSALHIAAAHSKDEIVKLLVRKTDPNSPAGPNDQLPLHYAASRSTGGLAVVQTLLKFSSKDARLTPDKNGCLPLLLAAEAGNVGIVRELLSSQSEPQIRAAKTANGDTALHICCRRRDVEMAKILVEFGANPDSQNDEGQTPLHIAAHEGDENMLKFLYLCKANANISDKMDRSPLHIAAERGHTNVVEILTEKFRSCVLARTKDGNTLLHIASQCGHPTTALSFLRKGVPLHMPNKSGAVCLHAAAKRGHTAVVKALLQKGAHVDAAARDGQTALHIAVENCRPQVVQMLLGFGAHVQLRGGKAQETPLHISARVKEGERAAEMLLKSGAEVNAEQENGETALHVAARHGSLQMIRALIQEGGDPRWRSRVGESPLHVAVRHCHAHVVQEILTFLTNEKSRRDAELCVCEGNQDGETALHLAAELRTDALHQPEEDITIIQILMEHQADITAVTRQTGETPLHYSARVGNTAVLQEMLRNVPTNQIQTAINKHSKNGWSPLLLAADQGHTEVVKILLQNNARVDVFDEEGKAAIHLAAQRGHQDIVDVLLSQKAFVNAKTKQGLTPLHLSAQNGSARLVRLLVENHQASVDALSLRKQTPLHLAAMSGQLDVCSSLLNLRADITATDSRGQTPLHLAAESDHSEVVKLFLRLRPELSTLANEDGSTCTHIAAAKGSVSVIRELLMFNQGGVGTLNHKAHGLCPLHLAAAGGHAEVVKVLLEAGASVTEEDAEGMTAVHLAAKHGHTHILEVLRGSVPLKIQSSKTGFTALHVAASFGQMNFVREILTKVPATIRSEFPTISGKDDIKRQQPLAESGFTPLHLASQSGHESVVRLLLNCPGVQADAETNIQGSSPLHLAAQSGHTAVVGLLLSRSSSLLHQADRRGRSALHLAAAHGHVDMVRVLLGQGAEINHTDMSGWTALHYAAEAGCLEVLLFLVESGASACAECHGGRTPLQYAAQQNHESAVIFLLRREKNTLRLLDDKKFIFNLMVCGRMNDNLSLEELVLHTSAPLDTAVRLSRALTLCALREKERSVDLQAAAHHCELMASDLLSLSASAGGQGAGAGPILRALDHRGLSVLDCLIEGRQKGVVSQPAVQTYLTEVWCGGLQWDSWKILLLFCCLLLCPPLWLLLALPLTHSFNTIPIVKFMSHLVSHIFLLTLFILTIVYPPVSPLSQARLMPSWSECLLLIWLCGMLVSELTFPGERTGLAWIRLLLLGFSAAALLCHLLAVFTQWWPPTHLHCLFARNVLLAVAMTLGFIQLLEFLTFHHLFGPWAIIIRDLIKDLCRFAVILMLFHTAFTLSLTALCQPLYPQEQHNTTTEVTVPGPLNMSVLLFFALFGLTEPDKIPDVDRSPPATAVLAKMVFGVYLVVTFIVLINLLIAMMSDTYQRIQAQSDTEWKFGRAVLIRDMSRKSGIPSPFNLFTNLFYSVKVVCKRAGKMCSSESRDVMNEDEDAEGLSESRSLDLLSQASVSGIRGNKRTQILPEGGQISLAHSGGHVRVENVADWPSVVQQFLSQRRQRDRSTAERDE
Sequence of Glucose-6-phosphate 1-dehydrogenase (P11413 whole entry): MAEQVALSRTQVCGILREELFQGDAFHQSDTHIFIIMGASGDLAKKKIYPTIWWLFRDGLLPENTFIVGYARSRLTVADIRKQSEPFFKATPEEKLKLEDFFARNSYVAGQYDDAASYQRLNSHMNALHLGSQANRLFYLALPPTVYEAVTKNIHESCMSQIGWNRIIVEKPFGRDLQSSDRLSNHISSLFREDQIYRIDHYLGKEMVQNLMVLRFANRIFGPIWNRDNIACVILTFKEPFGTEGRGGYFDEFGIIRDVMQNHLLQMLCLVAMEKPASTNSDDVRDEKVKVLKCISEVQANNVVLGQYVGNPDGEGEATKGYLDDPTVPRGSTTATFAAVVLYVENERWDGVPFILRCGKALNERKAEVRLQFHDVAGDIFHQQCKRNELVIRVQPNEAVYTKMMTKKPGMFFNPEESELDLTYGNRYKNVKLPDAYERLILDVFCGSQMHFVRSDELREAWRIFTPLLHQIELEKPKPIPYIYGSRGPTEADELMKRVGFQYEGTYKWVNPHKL

EC50 [10] | IC50 [11] | IC50 [12] | EC50 [13] | EC50 [14] | IC50 [15] | IC50 [16] | Compound | other results
 |  |  |  |  |  |  | O=C(CN1C(=O)C2C3CC(C(Br)C3Br)C2C1=O)N1CCN(Cc2ccccc2)CC1 (stereo not drawn) | EC50 [1]: 16.9 µM (inactive); EC50 [2]: > 29.9 µM (not active); IC50 [3]: 4.18 µM (active); IC50 [4]: 20.7 µM (not active)
 |  |  |  |  |  |  | CC(=O)c1sc(NC(=O)COc2ccc(Cl)cc2C)nc1C | IC50 [5]: > 50 µM (inactive)
 |  |  |  |  |  |  | CCn1c2ccccc2c2nc3cc(S(=O)(=O)N4CCOCC4)ccc3nc21 | IC50 [6]: 20 µM (active); IC50 [7]: > 80 µM (inactive); EC50 [8]: > 80 µM (inactive); EC50 [9]: > 80 µM (inactive)
> 32 µM (inactive) | 1.66 µM (active) | > 32 µM (inactive) | > 32 µM (inactive) | > 32 µM (inactive) | > 11 µM (inactive) | > 32 µM (inactive) | Cc1cccc(OCC(=O)N2CCN(c3nc(C)nc4sc5c(c34)CCCC5)CC2)c1 | 
> 32 µM (inactive) | 1.04 µM (active) | > 32 µM (inactive) | > 32 µM (inactive) | > 32 µM (inactive) | 2.09 µM (active) | 4.74 µM (active) | COc1ccc(-n2cc3c(-c4ccc(-c5ccccc5)cc4)nnc(C)c3n2)cc1 | 
